Measured values reported in US20250250230A1, “HETEROCYCLIC COMPOUND” (TAKEDA PHARMACEUTICAL COMPANY LIMITED, priority 2022, published 2025).

biological target: T1, human orexin type 2 receptor (Homo sapiens, UniProt O43614); test: Measurement of orexin type 2 receptor agonist activity (calcium fluorescence, Fluo-4 AM, FDSS); assay type: cell-based; settings: test compound 3 μM; CHO cells expressing human OX2 receptor; DMSO = 0%, orexin A (human) = 100%
T1 construct: expressed in transfected cells
T1 sequence (O43614 1-444): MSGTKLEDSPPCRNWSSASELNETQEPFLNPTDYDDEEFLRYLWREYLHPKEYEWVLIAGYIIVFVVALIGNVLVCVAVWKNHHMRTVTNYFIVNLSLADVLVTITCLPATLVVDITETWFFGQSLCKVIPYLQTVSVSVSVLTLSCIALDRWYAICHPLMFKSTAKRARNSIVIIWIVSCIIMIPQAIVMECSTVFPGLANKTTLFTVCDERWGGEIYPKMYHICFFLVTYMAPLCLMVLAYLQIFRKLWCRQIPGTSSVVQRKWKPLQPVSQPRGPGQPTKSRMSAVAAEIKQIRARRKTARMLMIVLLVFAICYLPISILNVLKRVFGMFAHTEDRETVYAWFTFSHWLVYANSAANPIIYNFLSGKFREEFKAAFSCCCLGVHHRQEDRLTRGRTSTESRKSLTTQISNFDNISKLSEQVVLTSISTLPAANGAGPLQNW
Text: To obtain a cell clone stably expressing human orexin type 2 receptor, human orexin type 2 receptor cDNA was inserted into pcDNA3.1(+) plasmid vector (Invitrogen), and a plasmid DNA for expression of human orexin type 2 receptor (pcDNA3.1(+)/hOX2R) was cloned. The plasmid DNA was introduced into CHO-K1 cell by an electroporation method, and human orexin type 2 receptor expressing clone cells were obtained by limiting dilution method by using G418 drug resistance as a selection marker.
CHO cells forcibly expressing human OX2 receptor were seeded in each well of 384 well black transparent bottom plate (BD Falcon) at 10,000 cells/well, and cultured for one day in a 5% CO2 incubator at 37° C. After removal of the medium in the cell plate, assay buffer A containing a calcium indicator (HBSS (Thermo Fisher Scientific), 20 mM HEPES (Thermo Fisher Scientific), 0.1% BSA (Sigma-Aldrich), 2.5 μg/mL Fluo-4 AM (DOJINDO Chemical), 0.08% Pluronic F127 (DOJINDO Chemical), 1.25 mM probenecid (DOJINDO Chemical)) was added at 30 μL/well. The plate was stood for 30 min in a 5% CO2 incubator at 37° C., and further stood at room temperature for 30 min. A test compound prepared by diluting with assay buffer B (HBSS, 20 mM HEPES, 0.1% BSA) was added at 10 μL/well, and the fluorescence value was measured by FDSSμCELL (Hamamatsu Photonics K.K.) every one sec for 1 min, and thereafter every two sec for […]. The activity (%) of the test compound was calculated assuming that variation in the fluorescence value when DMSO was added instead of the test compound was 0%, and variation in the fluorescence value when orexin A (human) (PEPTIDE INSTITUTE, INC.) was added at the final concentration of 10 nM was 100%.

OX2R agonist activity (3 μM, %) [%]	SMILES
96	CC1(C)C(C(=O)N2CC[C@H](NS(C)(=O)=O)C2)C1c1ccccc1-c1c(F)cccc1F (mixture of isomers) [Example 287, a mixture of N-{(3S)-1-[(1R,2R)-2-(2′,6′-difluoro[1,1′-biphenyl]-2-yl)-2,2-dimethylcyclopropane-1-carbonyl]pyrrolidin-3-yl}methanesulfonamide and N-{(3S)-1-[(1S,3S)-3-(2′,6′-difluoro[1,1′-biphenyl]-2-yl)-2,2-dimethylcyclopropane-1-carbonyl]pyrrolidin-3-yl}methanesulfonamide]
96	CC1(C)C(C(=O)N2CCC[C@H](NS(C)(=O)=O)CC2)C1c1ccccc1-c1c(F)cccc1F (mixture of isomers) [Example 288, a mixture of N-{(4S)-1-[(1R,2R)-2-(2′,6′-difluoro[1,1′-biphenyl]-2-yl)-2,2-dimethylcyclopropane-1-carbonyl]azepan-4-yl}methanesulfonamide and N-{(4S)-1-[(1S,3S)-3-(2′,6′-difluoro[1,1′-biphenyl]-2-yl)-2,2-dimethylcyclopropane-1-carbonyl]azepan-4-yl}methanesulfonamide]
98	CS(=O)(=O)N[C@H]1CCCN(C(=O)C2CC2(F)c2ccccc2-c2c(F)cccc2F)CC1 (mixture of isomers) [Example 290, a mixture of N-{(4S)-1-[(1R,2R)-2-(2′,6′-difluoro[1,1′-biphenyl]-2-yl)-2-fluorocyclopropane-1-carbonyl]azepan-4-yl}methanesulfonamide and N-{(4S)-1-[(1S,2S)-2-(2′,6′-difluoro[1,1′-biphenyl]-2-yl)-2-fluorocyclopropane-1-carbonyl]azepan-4-yl}methanesulfonamide]
93	CS(=O)(=O)N[C@H]1CCCCN(C(=O)C2CC2(F)c2ccccc2-c2c(F)cccc2F)C1 (mixture of isomers) [Example 291, a mixture of N-{(3S)-1-[(1R,2R)-2-(2′,6′-difluoro[1,1′-biphenyl]-2-yl)-2-fluorocyclopropane-1-carbonyl]azepan-3-yl}methanesulfonamide and N-{(3S)-1-[(1S,2S)-2-(2′,6′-difluoro[1,1′-biphenyl]-2-yl)-2-fluorocyclopropane-1-carbonyl]azepan-3-yl}methanesulfonamide]
99	CC1C(C(=O)N2CC[C@H](NS(C)(=O)=O)C2)C1c1ccccc1-c1c(F)cccc1F (mixture of isomers) [Example 303, a mixture of N-{(3S)-1-[(1R,2R,3S)-2-(2′,6′-difluoro[1,1′-biphenyl]-2-yl)-3-methylcyclopropane-1-carbonyl]pyrrolidin-3-yl}methanesulfonamide and N-{(3S)-1-[(1S,2S,3R)-2-(2′,6′-difluoro[1,1′-biphenyl]-2-yl)-3-methylcyclopropane-1-carbonyl]pyrrolidin-3-yl}methanesulfonamide]
85	CC1C(C(=O)N2CCC[C@H](NS(C)(=O)=O)C2)C1c1ccccc1-c1c(F)cccc1F (mixture of isomers) [Example 305, a mixture of N-{(3S)-1-[(1R,2R,3S)-2-(2′,6′-difluoro[1,1′-biphenyl]-2-yl)-3-methylcyclopropane-1-carbonyl]piperidin-3-yl}methanesulfonamide and N-{(3S)-1-[(1S,2S,3R)-2-(2′,6′-difluoro[1,1′-biphenyl]-2-yl)-3-methylcyclopropane-1-carbonyl]piperidin-3-yl}methanesulfonamide]
100	CC1C(C(=O)N2CCC[C@H](NS(C)(=O)=O)CC2)C1c1ccccc1-c1c(F)cccc1F (mixture of isomers) [Example 308, a mixture of N-{(4S)-1-[(1R,2R,3S)-2-(2′,6′-difluoro[1,1′-biphenyl]-2-yl)-3-methylcyclopropane-1-carbonyl]azepan-4-yl}methanesulfonamide and N-{(4S)-1-[(1S,2S,3R)-2-(2′,6′-difluoro[1,1′-biphenyl]-2-yl)-3-methylcyclopropane-1-carbonyl]azepan-4-yl}methanesulfonamide]
100	CC1(NS(C)(=O)=O)CCCN(C(=O)[C@@H]2C[C@H]2c2ccccc2-c2c(F)cccc2F)C1 (mixture of isomers) [Example 310, a mixture of N-{(3R)-1-[(1R,2R)-2-(2′,6′-difluoro[1,1′-biphenyl]-2-yl)cyclopropane-1-carbonyl]-3-methylpiperidin-3-yl}methanesulfonamide and N-{(3S)-1-[(1R,2R)-2-(2′,6′-difluoro[1,1′-biphenyl]-2-yl)cyclopropane-1-carbonyl]-3-methylpiperidin-3-yl}methanesulfonamide]
98	CC1C(C(=O)N2CCCC[C@H](NS(C)(=O)=O)C2)C1c1ccccc1-c1c(F)cccc1F (mixture of isomers) [Example 311, a mixture of N-{(3S)-1-[(1R,2R,3S)-2-(2′,6′-difluoro[1,1′-biphenyl]-2-yl)-3-methylcyclopropane-1-carbonyl]azepan-3-yl}methanesulfonamide and N-{(3S)-1-[(1S,2S,3R)-2-(2′,6′-difluoro[1,1′-biphenyl]-2-yl)-3-methylcyclopropane-1-carbonyl]azepan-3-yl}methanesulfonamide]
97	CC1(NS(C)(=O)=O)CCCN(C(=O)[C@@H]2C[C@H]2c2ccccc2-c2c(F)cccc2F)CC1 (mixture of isomers) [Example 313, a mixture of N-{(4R)-1-[(1R,2R)-2-(2′,6′-difluoro[1,1′-biphenyl]-2-yl)cyclopropane-1-carbonyl]-4-methylazepan-4-yl}methanesulfonamide and N-{(4S)-1-[(1R,2R)-2-(2′,6′-difluoro[1,1′-biphenyl]-2-yl)cyclopropane-1-carbonyl]-4-methylazepan-4-yl}methanesulfonamide]
101	CS(=O)(=O)N[C@H]1CCN(C(=O)C2C(c3ccccc3-c3c(F)cccc3F)C2(F)F)C1 (mixture of isomers) [Example 320, a mixture of N-{(3S)-1-[(1R,2R)-2-(2′,6′-difluoro[1,1′-biphenyl]-2-yl)-2,2-difluorocyclopropane-1-carbonyl]pyrrolidin-3-yl}methanesulfonamide and N-{(3S)-1-[(1S,3S)-3-(2′,6′-difluoro[1,1′-biphenyl]-2-yl)-2,2-difluorocyclopropane-1-carbonyl]pyrrolidin-3-yl}methanesulfonamide]
95	CC(O)[C@@H]1CN(C(=O)[C@@H]2C[C@@]2(F)c2ccccc2-c2c(F)cccc2F)[C@H]1CNS(C)(=O)=O (mixture of isomers) [Example 404, a mixture of N-{[(2R,3R)-1-[(1S,2S)-2-(2′,6′-difluoro[1,1′-biphenyl]-2-yl)-2-fluorocyclopropane-1-carbonyl]-3-[(1R)-1-hydroxyethyl]azetidin-2-yl]methyl}methanesulfonamide and N-{[(2R,3R)-1-[(1S,2S)-2-(2′,6′-difluoro[1,1′-biphenyl]-2-yl)-2-fluorocyclopropane-1-carbonyl]-3-[(1S)-1-hydroxyethyl]azetidin-2-yl]methyl}methanesulfonamide]
88	Cc1noc(C2(NS(C)(=O)=O)CCN(C(=O)[C@@H]3C[C@@]3(F)c3ccccc3-c3c(F)cccc3F)C2)n1 (mixture of isomers) [Example 421, a mixture of N-[(3R)-1-[(1S,2S)-2-(2′,6′-difluoro[1,1′-biphenyl]-2-yl)-2-fluorocyclopropane-1-carbonyl]-3-(3-methyl-1,2,4-oxadiazol-5-yl)pyrrolidin-3-yl]methanesulfonamide and N-[(3S)-1-[(1S,2S)-2-(2′,6′-difluoro[1,1′-biphenyl]-2-yl)-2-fluorocyclopropane-1-carbonyl]-3-(3-methyl-1,2,4-oxadiazol-5-yl)pyrrolidin-3-yl]methanesulfonamide]
